# Experimental data published in article PMC11678245, “The Molecular Basis of the Intrinsic and Acquired Resistance to Azole Antifungals in Aspergillus fumigatus” (Journal of Fungi, 2024).
# Where “and” joins values, the source holds several entries; their conditions need not be identical. Equal values may be shown once. Entries after “also recorded” stand apart in the source; their conditions may differ.
# Tests used:
# AfCYP51B-6×His = target: T1, AfCYP51B-6×His (Aspergillus fumigatus, UniProt E9QY26); test: Type I binding of substrates (difference spectra)
# T1 sequence (E9QY26 1-524): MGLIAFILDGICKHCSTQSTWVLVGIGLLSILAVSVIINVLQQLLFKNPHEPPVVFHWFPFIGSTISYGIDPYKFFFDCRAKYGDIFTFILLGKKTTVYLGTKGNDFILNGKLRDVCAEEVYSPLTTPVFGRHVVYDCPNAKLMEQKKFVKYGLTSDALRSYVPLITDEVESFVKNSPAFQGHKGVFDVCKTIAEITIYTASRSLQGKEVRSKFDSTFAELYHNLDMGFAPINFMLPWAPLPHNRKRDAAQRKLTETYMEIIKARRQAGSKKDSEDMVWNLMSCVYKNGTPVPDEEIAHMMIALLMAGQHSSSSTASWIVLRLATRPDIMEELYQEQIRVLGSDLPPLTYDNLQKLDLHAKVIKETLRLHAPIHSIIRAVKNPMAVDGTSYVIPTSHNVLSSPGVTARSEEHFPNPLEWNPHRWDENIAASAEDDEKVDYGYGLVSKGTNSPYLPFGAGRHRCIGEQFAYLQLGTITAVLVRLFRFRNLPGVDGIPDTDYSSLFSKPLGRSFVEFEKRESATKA
# Description: (§1) The concentration of AfCYP51A and AfCYP51B, purified using Ni-NTA affinity chromatography and used for the spectrophotometric type I and type II binding assays, was calculated using an extinction co-efficient of λ417nm = 117 mM^−1 cm^−1 applied to the absolute absorption spectrum of the preparations. In addition, the amount of “active” cytochrome P450 enzyme was determined using the carbon monoxide (CO) binding spectra of these preparations.
# (§2) Type I binding of substrates lanosterol and eburicol in the active site of the Ni-NTA affinity-purified AfCYP51A and AfCYP51B enzymes was assessed using the method of Warrilow et al.. Titrations of 5 μM AfCYP51-6×His protein with lanosterol or eburicol (1 to 250 μM) were measured using a Cary 300 UV–Visible Spectrophotometer (Agilent Technologies, Santa Clara, CA, USA). Substrate saturation curves were constructed by plotting the maximal ∆Apeak−trough obtained between 350 and 500 nm, allowing for a change in the reaction volume during the titration. The substrate binding constant (KS) was calculated by nonlinear regression (Levenberg–Marquardt algorithm) applied to the Michaelis–Menten equation or the Hill equation. GraphPad Prism 9.2.0 software was used to identify the best fit for the data.
# AfCYP51A-6×His = AfCYP51A-6×His (Aspergillus fumigatus, UniProt Q4WNT5); test: Type I binding of substrates (difference spectra); set-up: Full-length codon-optimised AfCYP51A-6×His and AfCYP51B-6×His were constitutively co-expressed; made in house; conditions: AfCYP51A-6×His 5 µM, concentrations up to 300 μM
# Description: as §1
# as §2, with “Titrations of 5 μM AfCYP51-6×His protein with lanosterol or eburicol (1 to 250 μM) were measured using a Cary 300 UV–Visible Spectrophotometer (Agilent Technologies, Santa Clara, CA, USA).” left out
# Chain of AfCYP51A-6×His (Q4WNT5 whole entry): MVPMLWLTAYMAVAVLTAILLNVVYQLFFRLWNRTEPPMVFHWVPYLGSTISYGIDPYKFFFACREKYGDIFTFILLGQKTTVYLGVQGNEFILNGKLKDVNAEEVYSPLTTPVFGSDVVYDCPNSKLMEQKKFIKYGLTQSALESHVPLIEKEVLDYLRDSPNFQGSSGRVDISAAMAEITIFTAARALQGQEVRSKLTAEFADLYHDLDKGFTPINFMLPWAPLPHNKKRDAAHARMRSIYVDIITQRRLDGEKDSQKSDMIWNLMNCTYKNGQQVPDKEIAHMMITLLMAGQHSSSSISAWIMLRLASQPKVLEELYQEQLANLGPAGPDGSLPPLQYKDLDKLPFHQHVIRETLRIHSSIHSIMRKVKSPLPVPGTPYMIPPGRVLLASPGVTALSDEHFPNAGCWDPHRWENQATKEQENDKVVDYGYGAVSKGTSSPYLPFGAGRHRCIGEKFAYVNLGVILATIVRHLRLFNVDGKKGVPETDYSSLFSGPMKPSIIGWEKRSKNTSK
smiles,measurement,setting,value
"CC(C)=CCC[C@@H](C)[C@H]1CC[C@@]2(C)C3=C(CC[C@]12C)[C@@]1(C)CC[C@H](O)C(C)(C)[C@@H]1CC3 [Lanosterol, lanosterol]",type I binding spectrum peak,AfCYP51B-6×His; AfCYP51B-6×His,386 nm
same,type I binding spectrum trough,AfCYP51B-6×His; AfCYP51B-6×His,423 nm
same,ΔAmax (type I binding),"AfCYP51B-6×His; AfCYP51B-6×His 5 μM, Michaelis–Menten equation",0.22 and 0.219
same,Kd,"AfCYP51B-6×His; AfCYP51B-6×His 5 μM, type I binding, Michaelis–Menten equation, read-out: Ks",477 µM
same,affinity of AfCYP51B for eburicol versus lanosterol,AfCYP51B-6×His; ratio of Ks values,approximately 6 fold
same,type I binding response,AfCYP51A-6×His,did not give the expected type I binding response; also recorded: did not give a type I binding response
